From US9376429B2, “Sodium channel blockers, preparation method thereof and use thereof” (Daewoong Pharmaceutical Co., Ltd., priority 2012, dated 2016)

Each compound was assayed against T1, sodium ion channel (Nav1.7) (Homo sapiens, UniProt Q15858) (assay: Blocking effect against sodium ion channel (Nav1.7), IonFlux16 auto patch clamp, hNav1.7 HEK293 cells). Settings: peak current after 50 seconds treatment, eight concentrations.
T1 construct: host or cells: HEK293
Assay type: cell-based
Procedure: In order to measure the activities of the inventive compounds as antagonists, an experiment on a blocking effect against the sodium ion channel (Nav1.7) was carried out as follows.
The hNav1.7 HEK293 cell line used was a cell line having a human sodium ion channel 1.7 gene (type IX voltage-gated sodium channel alpha subunit) in human embryonic kidney (HEK) 293 cells and was purchased from Millipore. The medium used was prepared by adding 1% 100×NEAA and 10% heat inactivated FBS to DMEM F-12 and adding 1% P/S as an antibiotic thereto. G-418 as a […] was added during subculture, and the hNav1.7 HEK293 cells were cultured to a confluence of about 80% in a T75 flask in a 5% CO2 incubator at 37° C. for 2 or 3 days and detached from the flask by treatment with 0.25% trypsin solution. Then, the cells were collected by centrifugation and used in the experiment.
The compounds prepared in the Examples of the present invention were dissolved in dimethyl sulfoxide (DMSO) and used in the experiment. 90 mM and 10 mM DMSO stock solutions were prepared from each of the compounds and diluted in an extracellular solution (4 mM KCl, 138 mM NaCl, 1 mM MgCl2, 1.8 mM CaCl2, 5.6 mM glucose, 10 mM HEPES, pH 7.45) at various concentrations so that the final concentration of each compound in DMSO was 0.3% or less.
To measure the sodium ion channel blocking effect, an IonFlux16 Auto patch clamp system (Fluxion, Inc.) and a plate for exclusive use were used. The cells were distributed in an extracellular solution (4 mM KCl, 138 mM NaCl, 1 mM MgCl2, 1.8 mM CaCl2, 5.6 mM glucose, 10 mM HEPES, pH 7.45), and then dispensed in the specified region of the plate, and each of the prepared compound samples was diluted at various concentrations, and then dispensed in the specified region of the plate.
Specifically, eight concentrations per compound were set, and percent inhibition was determined by calculating the percentage of inhibition of the peak current, generated after treating the cells with each concentration of the compound for 50 seconds, relative to the peak current generated before treatment with the compound, and the IC50 value was calculated using the Sigma plot program. In Table 2 below, the percent inhibition of Nav1.7 is rated as follows: […]

T1 sequence (Q15858 whole entry): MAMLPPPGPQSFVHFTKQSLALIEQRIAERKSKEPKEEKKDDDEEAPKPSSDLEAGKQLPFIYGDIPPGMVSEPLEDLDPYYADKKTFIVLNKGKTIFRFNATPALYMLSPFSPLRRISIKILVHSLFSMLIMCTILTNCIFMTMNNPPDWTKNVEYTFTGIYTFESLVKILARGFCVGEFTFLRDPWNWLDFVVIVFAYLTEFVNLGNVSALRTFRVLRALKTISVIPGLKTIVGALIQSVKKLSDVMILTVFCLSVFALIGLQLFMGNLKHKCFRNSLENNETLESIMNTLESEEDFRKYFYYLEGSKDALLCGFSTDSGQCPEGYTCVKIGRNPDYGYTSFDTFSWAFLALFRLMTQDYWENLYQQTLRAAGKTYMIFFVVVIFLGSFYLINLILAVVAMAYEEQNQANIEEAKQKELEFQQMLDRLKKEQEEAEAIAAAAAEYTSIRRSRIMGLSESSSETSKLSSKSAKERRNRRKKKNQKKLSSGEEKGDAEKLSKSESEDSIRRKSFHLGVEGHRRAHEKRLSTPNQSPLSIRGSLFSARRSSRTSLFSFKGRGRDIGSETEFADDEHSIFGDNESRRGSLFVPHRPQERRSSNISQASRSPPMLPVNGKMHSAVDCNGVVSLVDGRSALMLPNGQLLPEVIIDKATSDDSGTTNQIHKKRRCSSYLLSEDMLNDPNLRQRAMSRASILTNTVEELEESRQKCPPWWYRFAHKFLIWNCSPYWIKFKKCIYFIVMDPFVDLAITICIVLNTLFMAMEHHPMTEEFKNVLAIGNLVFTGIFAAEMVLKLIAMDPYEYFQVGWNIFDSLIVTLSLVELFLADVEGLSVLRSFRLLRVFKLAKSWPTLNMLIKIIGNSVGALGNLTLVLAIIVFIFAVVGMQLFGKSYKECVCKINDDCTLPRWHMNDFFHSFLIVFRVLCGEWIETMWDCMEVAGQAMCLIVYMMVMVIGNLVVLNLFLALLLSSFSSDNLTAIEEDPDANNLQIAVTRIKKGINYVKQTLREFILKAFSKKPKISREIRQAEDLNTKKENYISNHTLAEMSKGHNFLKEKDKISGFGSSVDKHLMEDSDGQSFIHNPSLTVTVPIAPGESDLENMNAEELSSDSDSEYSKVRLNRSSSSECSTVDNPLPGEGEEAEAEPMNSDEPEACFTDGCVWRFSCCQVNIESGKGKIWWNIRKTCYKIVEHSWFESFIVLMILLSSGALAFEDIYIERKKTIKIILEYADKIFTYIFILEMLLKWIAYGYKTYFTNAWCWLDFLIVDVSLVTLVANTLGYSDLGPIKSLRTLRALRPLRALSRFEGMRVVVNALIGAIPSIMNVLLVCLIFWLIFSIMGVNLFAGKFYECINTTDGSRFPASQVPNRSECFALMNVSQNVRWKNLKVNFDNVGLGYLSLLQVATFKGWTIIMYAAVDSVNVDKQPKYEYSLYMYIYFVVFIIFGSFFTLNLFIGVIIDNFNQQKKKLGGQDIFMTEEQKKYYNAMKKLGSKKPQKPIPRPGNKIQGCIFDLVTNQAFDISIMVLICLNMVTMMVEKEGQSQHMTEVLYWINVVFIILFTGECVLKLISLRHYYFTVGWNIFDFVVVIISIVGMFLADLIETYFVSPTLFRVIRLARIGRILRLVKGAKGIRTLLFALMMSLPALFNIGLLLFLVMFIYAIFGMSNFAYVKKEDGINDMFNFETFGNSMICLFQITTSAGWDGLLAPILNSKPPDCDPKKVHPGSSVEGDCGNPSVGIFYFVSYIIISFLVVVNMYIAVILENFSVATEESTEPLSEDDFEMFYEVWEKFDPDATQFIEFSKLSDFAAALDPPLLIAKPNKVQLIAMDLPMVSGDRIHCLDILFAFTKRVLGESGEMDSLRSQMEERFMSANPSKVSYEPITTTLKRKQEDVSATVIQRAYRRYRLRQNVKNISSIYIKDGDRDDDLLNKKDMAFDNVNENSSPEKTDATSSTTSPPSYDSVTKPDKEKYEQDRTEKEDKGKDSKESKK

IC50 [µM]	SMILES
> 0.1	N#Cc1cc(S(=O)(=O)Nc2nccs2)ccc1Oc1cnc(-c2ccc(F)nc2)cc1-c1cccnc1 [Example 49, 3-cyano-4-((6-fluoro-[3,2′:4′,3″-terpyridin]-5′-yl)oxy)-N-(thiazol-2-yl)benzenesulfonamide]
> 0.1	Cn1cc(-c2ccc(Oc3ccc(S(=O)(=O)Nc4nccs4)cc3C#N)c(-c3ccnn3C)n2)cn1 [Example 120, 3-cyano-4-((6-(1-methyl-1H-pyrazol-4-yl)-2-(1-methyl-1H-pyrazol-5-yl)pyridin-3-yl)oxy)-N-(thiazol-2-yl)benzenesulfonamide]
> 0.1	Cn1nccc1-c1nc(-c2ccc(F)nc2F)ccc1Oc1cc(F)c(S(=O)(=O)Nc2cscn2)cc1Cl [Example 134, 5-chloro-4-((2′,6′-difluoro-6-(1-methyl-1H-pyrazol-5-yl)-[2,3′-bipyridin]-5-yl)oxy)-2-fluoro-N-(thiazol-4-yl)benzenesulfonamide]
> 0.1	O=S(=O)(Nc1cscn1)c1cc(Cl)c(Oc2cnc(-c3cccc(F)c3)cc2-c2ccoc2)cc1F [Example 59, 5-chloro-2-fluoro-4-((6-(3-fluorophenyl)-4-(furan-3-yl)pyridin-3-yl)oxy)-N-(thiazol-4-yl)benzenesulfonamide]
> 0.1	O=S(=O)(Nc1cscn1)c1cc(Cl)c(Oc2cnc(-c3cc(Cl)ccc3F)cc2-c2cccnc2)cc1F [Example 81, 5-chloro-4-((6′-(5-chloro-2-fluorophenyl)-[3,4′-bipyridin]-3′-yl)oxy)-2-fluoro-N-(thiazol-4-yl)benzenesulfonamide]
> 0.1	O=S(=O)(Nc1nccs1)c1ccc(Oc2cnc(-c3ccoc3)cc2-c2ccoc2)c(F)c1 [Example 17, 4-((4,6-di(furan-3-yl)pyridin-3-yl)oxy)-3-fluoro-N-(thiazol-2-yl)benzenesulfonamide]
> 0.1	O=S(=O)(Nc1cscn1)c1cc(Cl)c(Oc2cnc(-c3cccc(F)c3)cc2-c2cn[nH]c2)cc1F [Example 78, 5-chloro-2-fluoro-4-((6-(3-fluorophenyl)-4-(1H-pyrazol-4-yl)pyridin-3-yl)oxy)-N-(thiazol-4-yl)benzenesulfonamide]
> 0.1	Cn1nccc1-c1cc(-c2ccc(F)cc2)ncc1Oc1ccc(S(=O)(=O)Nc2nccs2)cc1C#N [Example 23, 3-cyano-4-((6-(4-fluorophenyl)-4-(1-methyl-1H-pyrazol-5-yl)pyridin-3-yl)oxy)-N-(thiazol-2-yl)benzenesulfonamide]
> 0.1	Cn1nccc1-c1cc(-c2ccnc(F)c2)ncc1Oc1ccc(S(=O)(=O)Nc2nccs2)cc1C#N [Example 27, 3-cyano-4-((2′-fluoro-4-(1-methyl-1H-pyrazol-5-yl)-[2,4′-bipyridin]-5-yl)oxy)-N-(thiazol-2-yl)benzenesulfonamide]
> 0.1	O=S(=O)(Nc1cscn1)c1cc(Cl)c(Oc2ccc(-c3ccc(F)nc3F)nc2-c2ccoc2)cc1F [Example 129, 5-chloro-4-((2′,6′-difluoro-6-(furan-3-yl)-[2,3′-bipyridin]-5-yl)oxy)-2-fluoro-N-(thiazol-4-yl)benzenesulfonamide]
0.051 to 0.1	N#Cc1cc(S(=O)(=O)Nc2nccs2)ccc1Oc1cnc(-c2ccccc2)cc1-c1ccnc(F)c1 [Example 31, 3-cyano-4-((2′-fluoro-6-phenyl-[4,4′-bipyridin]-3-yl)oxy)-N-(thiazol-2-yl)benzenesulfonamide]
> 0.1	O=S(=O)(Nc1nccs1)c1ccc(C(O)c2ccc(-c3ccoc3)cc2-c2ccoc2)c(F)c1 (centres unmarked) [Example 141, 4-((2,4-di(furan-3-yl)phenyl)(hydroxy)methyl)-3-fluoro-N-(thiazol-2-yl)benzenesulfonamide]
> 0.1	O=S(=O)(Nc1cscn1)c1cc(Cl)c(Oc2ccc(-c3ccccc3F)nc2-c2ccoc2)cc1F [Example 133, 5-chloro-2-fluoro-4-((6-(2-fluorophenyl)-2-(furan-3-yl)pyridin-3-yl)oxy)-N-(thiazol-4-yl)benzenesulfonamide]
> 0.1	O=S(=O)(Nc1cscn1)c1cc(Cl)c(Oc2ccc(-c3ccnc(F)c3)nc2-c2ccoc2)cc1F [Example 132, 5-chloro-2-fluoro-4-((2′-fluoro-6-(furan-3-yl)-[2,4′-bipyridin]-5-yl)oxy)-N-(thiazol-4-yl)benzenesulfonamide]
> 0.1	O=S(=O)(Nc1nccs1)c1ccc(C(O)c2ccc(Cl)cc2-c2cn[nH]c2)c(F)c1 (centres unmarked) [Example 139, 4-((4-chloro-2-(1H-pyrazol-4-yl)phenyl)(hydroxy)methyl)-3-fluoro-N-(thiazol-2-yl)benzenesulfonamide]
> 0.1	O=S(=O)(Nc1cscn1)c1cc(Cl)c(Oc2cnc(-c3cccc(F)c3)cc2-c2cncnc2)cc1F [Example 76, 5-chloro-2-fluoro-4-((6-(3-fluorophenyl)-4-(pyrimidin-5-yl)pyridin-3-yl)oxy)-N-(thiazol-4-yl)benzenesulfonamide]
> 0.1	O=S(=O)(Nc1cscn1)c1cc(Cl)c(Oc2cnc(-c3ccnc(F)c3)cc2-c2cccnc2)cc1F [Example 75, 5-chloro-2-fluoro-4-((2″-fluoro-[3,4′:2′,4″-terpyridin]-5′-yl)oxy)-N-(thiazol-4-yl)benzenesulfonamide]
0.051 to 0.1	N#Cc1cc(S(=O)(=O)Nc2nccs2)ccc1Oc1cnc(-c2ccnc(F)c2)cc1-c1ccoc1 [Example 9, 3-cyano-4-(2′-fluoro-4-(furan-3-yl)-2,4′-bipyridin-5-yloxy)-N-(thiazol-2-yl)benzenesulfonamide]
> 0.1	O=S(=O)(Nc1cscn1)c1cc(F)c(Oc2cnc(-c3ccc(C(F)(F)F)c(F)c3)cc2-c2cncnc2)cc1F [Example 97, 2,5-difluoro-4-((6-(3-fluoro-4-(trifluoromethyl)phenyl)-4-(pyrimidin-5-yl)pyridin-3-yl)oxy)-N-(thiazol-4-yl)benzenesulfonamide]
0.051 to 0.1	N#Cc1cc(S(=O)(=O)Nc2nccs2)ccc1Oc1cnc(-c2ccc(F)nc2)cc1-c1ccoc1 [Example 11, 3-cyano-4-(6′-fluoro-4-(furan-3-yl)-2,3′-bipyridin-5-yloxy)-N-(thiazol-2-yl)benzenesulfonamide]
> 0.1	Cc1cc(-c2cc(-c3ccccc3)ncc2Oc2ccc(S(=O)(=O)Nc3nccs3)cc2C#N)c(C)s1 [Example 41, 3-cyano-4-((4-(2,5-dimethylthiophen-3-yl)-6-phenylpyridin-3-yl)oxy)-N-(thiazol-2-yl)benzenesulfonamide]
> 0.1	N#Cc1cc(S(=O)(=O)Nc2nccs2)ccc1Oc1cnc(-c2ccccc2F)cc1-c1ccoc1 [Example 6, 3-cyano-4-(6-(2-fluorophenyl)-4-(furan-3-yl)pyridin-3-yloxy)-N-(thiazol-2-yl)benzenesulfonamide]
> 0.1	O=S(=O)(Nc1cscn1)c1cc(Cl)c(Oc2cnc(-c3ccc(F)c(F)c3)cc2-c2cccnc2)cc1F [Example 82, 5-chloro-4-((6′-(3,4-difluorophenyl)-[3,4′-bipyridin]-3′-yl)oxy)-2-fluoro-N-(thiazol-4-yl)benzenesulfonamide]
< 0.05	N#Cc1cc(S(=O)(=O)Nc2nccs2)ccc1Oc1cnc(-c2cccc(F)c2)cc1-c1cccnc1 [Example 50, 3-cyano-4-((6′-(3-fluorophenyl)-[3,4′-bipyridin]-3′-yl)oxy)-N-(thiazol-2-yl)benzenesulfonamide]
> 0.1	N#Cc1cc(S(=O)(=O)Nc2nccs2)ccc1Oc1cnc(-c2ccncc2)cc1-c1ccoc1 [Example 14, 3-cyano-4-(4-(furan-3-yl)-2,4′-bipyridin-5-yloxy)-N-(thiazol-2-yl)benzenesulfonamide]
> 0.1	Cn1cc(-c2nc(-c3cccnc3F)ccc2Oc2ccc(S(=O)(=O)Nc3nccs3)cc2C#N)cn1 [Example 123, 3-cyano-4-((2′-fluoro-6-(1-methyl-1H-pyrazol-4-yl)-[2,3′-bipyridin]-5-yl)oxy)-N-(thiazol-2-yl)benzenesulfonamide]
> 0.1	Cn1nccc1-c1cc(-c2ccccc2F)ncc1Oc1ccc(S(=O)(=O)Nc2nccs2)cc1C#N [Example 24, 3-cyano-4-((6-(2-fluorophenyl)-4-(1-methyl-1H-pyrazol-5-yl)pyridin-3-yl)oxy)-N-(thiazol-2-yl)benzenesulfonamide]
> 0.1	O=S(=O)(Nc1cscn1)c1cc(Cl)c(Oc2cnc(-c3cccc(F)c3)cc2-c2ccnc(F)c2)cc1F [Example 79, 5-chloro-2-fluoro-4-((2′-fluoro-6-(3-fluorophenyl)-[4,4′-bipyridin]-3-yl)oxy)-N-(thiazol-4-yl)benzenesulfonamide]
> 0.1	O=S(=O)(Nc1cscn1)c1cc(Cl)c(Oc2ccc(-c3ccc(F)nc3)nc2-c2ccoc2)cc1F [Example 130, 5-chloro-2-fluoro-4-((6′-fluoro-6-(furan-3-yl)-[2,3′-bipyridin]-5-yl)oxy)-N-(thiazol-4-yl)benzenesulfonamide]
